Measurements from ChEMBL document CHEMBL1125006, “DNA-directed alkylating agents. 2. Synthesis and biological activity of platinum complexes linked to 9-anilinoacridine” (J Med Chem, 1990).
The source made the active and inactive calls. The rule behind the calls is not given here.

Columns and labels:
P388 [1] = assay: In vitro inhibition of Pt resistant P388 (murine leukemia) cell growth.; format: functional, cell-based, Mus musculus
P388 [2] = assay: In vitro inhibition of P388 (murine leukemia) cell growth.; format: functional, cell-based, Mus musculus
P388 [3] = assay: Increase in mean survival of P388 (murine leukemia) inoculated mice; no effect.; format: functional; conditions: Mus musculus
P388 [4] = assay: Optimal i.p. dose in P388 (murine leukemia) inoculated mice.; format: functional, Mus musculus
P388 [5] = assay: Increase in mean survival of P388 (murine leukemia) inoculated mice following optimal dose.; format: functional, organism-based; conditions: Mus musculus

IC50 (P388 [1]; Mus musculus, P388) | IC50 (P388 [2]; Mus musculus, P388) | Compound | ILS (P388 [3]) | OD (P388 [4]) | other results
 |  | 2-{4-[4-(Acridin-9-ylamino)-phenyl]-butyl}-propane-1,3-diammino-dichloroplatinum (II) (HCl) [listing 1 of 2 here] |  |  | IC50 (P388 [1]; p388): 900 nM; IC50 (P388 [2]; p388): 7200 nM
 |  | Dichloro(1,3-propanediamine)platinum (II) [listing 1 of 2 here] |  |  | IC50 (P388 [1]; p388): 380 nM; IC50 (P388 [2]; p388): 120 nM
 |  | 9-[4-(5-Amino-4-aminomethyl-pentyl)-phenylamino]-5-methoxy-acridine-4-carboxylic acid (2-dimethylamino-ethyl)-amide (2HCl) [listing 1 of 2 here] |  |  | IC50 (P388 [1]; p388): 1000 nM; IC50 (P388 [2]; p388): 1600 nM
690 nM | 720 nM | NCC(CN)CCCCCc1ccc(Nc2c3ccccc3nc3ccccc23)cc1 | inactive | 13.3 mg/kg | 
680 nM | 720 nM | NCC(CN)CCCCc1ccc(Nc2c3ccccc3nc3ccccc23)cc1 | inactive | 20 mg/kg | 
 |  | CISPLATIN [listing 1 of 2 here] |  |  | IC50 (P388 [1]; p388): 5500 nM; IC50 (P388 [2]; p388): 1200 nM
120 nM | 120 nM | NCC(CN)CCCc1ccc(Nc2c3ccccc3nc3ccccc23)cc1 | inactive | 30 mg/kg | 
 |  | 2-{4-[4-(Acridin-9-ylamino)-phenyl]-butyl}-propane-1,3-diammino-dichloroplatinum (II) (HCl) [listing 2 of 2 here] | inactive |  | OD (P388 [4]; Mus musculus): 30 mg/kg
 |  | N,1-{2-[4-(Acridin-9-ylamino)-phenyl]-ethyl}-ethane-1,2-diammino-dichloroplatinum (II) [listing 1 of 2 here] | inactive |  | OD (P388 [4]; Mus musculus): 13.3 mg/kg
700 nM | 3700 nM | NCCNCCCc1ccc(Nc2c3ccccc3nc3ccccc23)cc1 | inactive | 20 mg/kg | 
 |  | 2-{3-[4-(Acridin-9-ylamino)-phenyl]-propyl}-propane-1,3-diammino-dichloroplatinum (II) (HCl) [listing 1 of 2 here] | inactive |  | OD (P388 [4]; Mus musculus): 20 mg/kg
 |  | 2-{3-[4-(Acridin-9-ylamino)-phenyl]-propyl}-propane-1,3-diammino-dichloroplatinum (II) (HCl) [listing 2 of 2 here] |  |  | IC50 (P388 [1]; p388): 1900 nM; IC50 (P388 [2]; p388): 2900 nM
3000 nM | 7300 nM | NCCNCCCCCc1ccc(Nc2c3ccccc3nc3ccccc23)cc1 | inactive | 20 mg/kg | 
 |  | 9-[4-(5-Amino-4-aminomethyl-pentyl)-phenylamino]-5-methoxy-acridine-4-carboxylic acid (2-dimethylamino-ethyl)-amide (2HCl) [listing 2 of 2 here] |  |  | ILS (P388 [5]): 28%; OD (P388 [4]; Mus musculus): 45 mg/kg
 |  | Dichloro(1,3-propanediamine)platinum (II) [listing 2 of 2 here] |  |  | ILS (P388 [5]): 31%; OD (P388 [4]; Mus musculus): 8.9 mg/kg
 |  | N,1-{2-[4-(Acridin-9-ylamino)-phenyl]-ethyl}-ethane-1,2-diammino-dichloroplatinum (II) [listing 2 of 2 here] |  |  | IC50 (P388 [1]; p388): 2400 nM; IC50 (P388 [2]; p388): 2900 nM
45000 nM | 12500 nM | NCCNCCc1ccc(Nc2c3ccccc3nc3ccccc23)cc1 | inactive | 45 mg/kg | 
 |  | DICHLORO(ETHYLENEDIAMINE) PLATINUM (II) [listing 1 of 2 here] |  |  | ILS (P388 [5]): 70%; OD (P388 [4]; Mus musculus): 13.3 mg/kg
 |  | CISPLATIN [listing 2 of 2 here] |  |  | ILS (P388 [5]): 120%; OD (P388 [4]; Mus musculus): 5.3 mg/kg
 |  | COc1cccc2c(Nc3ccc(CCCC(CN)CN)cc3)c3cccc(C(=O)NCCN(C)C)c3nc12 | inactive | 30 mg/kg | 
700 nM | 7200 nM | NCC(CN)Cc1ccc(Nc2c3ccccc3nc3ccccc23)cc1 | inactive | 45 mg/kg | 
1300 nM | 7800 nM | NCCNCCCCc1ccc(Nc2c3ccccc3nc3ccccc23)cc1 | inactive | 65 mg/kg | 
630 nM | 310 nM | NCC(CN)CCc1ccc(Nc2c3ccccc3nc3ccccc23)cc1 | inactive | 30 mg/kg | 
 |  | DICHLORO(ETHYLENEDIAMINE) PLATINUM (II) [listing 2 of 2 here] |  |  | IC50 (P388 [1]; p388): 1030 nM; IC50 (P388 [2]; p388): 300 nM
